# According to patent publication US20260049085A1, “CYCLIC COMPOUNDS AND METHODS OF USING SAME” (SCHRÖDINGER, INC., priority 2022, published 2026):
# Target: T1, full-length MALT1 protein His-MALT1(1-824) (Homo sapiens, UniProt Q9UDY8)
# T1 construct: full-length MALT1 protein His-MALT1(1-824); His (N); made in house; host or cells: baculovirus-infected insect cells
# T1 sequence (Q9UDY8 1-824): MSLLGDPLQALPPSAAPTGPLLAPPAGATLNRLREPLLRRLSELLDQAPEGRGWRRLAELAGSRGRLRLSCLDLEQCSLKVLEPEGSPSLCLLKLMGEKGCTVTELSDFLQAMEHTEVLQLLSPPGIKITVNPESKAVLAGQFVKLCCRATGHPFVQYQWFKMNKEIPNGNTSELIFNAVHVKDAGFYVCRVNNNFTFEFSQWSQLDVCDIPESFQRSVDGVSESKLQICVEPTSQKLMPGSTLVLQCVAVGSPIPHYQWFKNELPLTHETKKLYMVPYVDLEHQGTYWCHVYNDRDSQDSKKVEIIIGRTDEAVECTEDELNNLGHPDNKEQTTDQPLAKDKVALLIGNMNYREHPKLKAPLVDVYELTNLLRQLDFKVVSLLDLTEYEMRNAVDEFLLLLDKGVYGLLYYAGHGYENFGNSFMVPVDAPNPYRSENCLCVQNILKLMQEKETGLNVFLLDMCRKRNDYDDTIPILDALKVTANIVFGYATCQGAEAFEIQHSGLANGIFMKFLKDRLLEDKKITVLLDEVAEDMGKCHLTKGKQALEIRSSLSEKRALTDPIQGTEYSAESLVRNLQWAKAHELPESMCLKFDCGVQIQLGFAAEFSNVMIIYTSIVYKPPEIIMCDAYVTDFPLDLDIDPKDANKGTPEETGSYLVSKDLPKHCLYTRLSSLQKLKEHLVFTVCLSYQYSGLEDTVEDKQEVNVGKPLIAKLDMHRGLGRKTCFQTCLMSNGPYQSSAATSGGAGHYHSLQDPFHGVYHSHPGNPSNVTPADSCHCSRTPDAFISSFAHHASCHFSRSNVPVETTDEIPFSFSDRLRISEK
# Assay: MALT1 protease assay (Ac-LRSR-AMC tetrapeptide substrate, fluorescence)
# Assay type: biochemical
# Settings: 1 nM MALT1, 25 μM Ac-LRSR-AMC, 2 h pre-incubation, 8 hr incubation at RT
# Procedure: MALT1 protease activity was assessed in an in vitro assay using a tetrapeptide as substrate and full-length MALT1 protein His-MALT1(1-824) purified from baculovirus-infected insect cells.
# The final assay buffer includes 1 nM of MALT1 full-length protein, 25 μM Ac-LRSR-AMC substrate, 50 mM Tris pH 7.5, 600 mM Sodium Citrate, 1 mM DTT, 1 mM EDTA, and 0.05% BSA in 384-well plate format using black microtiter square well plates (Optiplate 384-F, Perkin Elmer).
# Test compounds were dissolved in 100% DMSO stock of 10 mM, with final DMSO concentration of 0.1%. Test compounds were pre-incubated with MALT1 protein for 2 h at room temperature. Substrate was added after the pre-incubation and fluorescence signal was measured using Envision at excitation 355 nm and emission 460 nm after 8 hr incubation at RT.
# The fluorescence units were transformed to percentage of remaining activity by using the high control (HC, median of fluorescence signal from wells containing MALT1 protein, substrate, and DMSO) and low control (LC, median of fluorescence signal from wells with substrate only) with the formula below: […]
# IC50 and Hill coefficients were obtained using Graph Pad Prism (Graph Pad software, Inc, USA) with non-linear regression analysis.
row,SMILES,IC50
1,"CC1(n2cc([C@]3(C)C[C@H](C(=O)Nc4cnc(-n5nccn5)c(Cl)c4)c4cnc5cc(F)nn5c43)cn2)CC1 (single isomer, unassigned) [Example 108]",100 to 1000 nM
2,"Cn1cc([C@]2(C)C[C@@H](C(=O)Nc3cnc(OC(F)(F)F)c(C#N)c3)c3cnc4cc(F)nn4c32)cn1 (single isomer, unassigned) [Example 53]",≥ 1000 nM
3,"CC1(c2ccn(C(F)F)n2)CC(C(=O)Nc2cnc(-c3ncc(F)cn3)c(Cl)c2)c2cnc3cc(F)nn3c21 (single isomer, unassigned) [Example 115]",100 to 1000 nM
4,"C[C@]1(c2cnn(C(F)F)c2)C[C@H](C(=O)Nc2cnc(-n3nccn3)c(C(F)(F)F)c2)c2cnc3cc(F)nn3c21 (single isomer, unassigned) [Example 80]",< 10 nM
5,"Cn1cc([C@]2(C)C[C@H](C(=O)Nc3cnc(-n4nccn4)c(Cl)c3)c3cnc4cc(Cl)nn4c32)cn1 (single isomer, unassigned) [Example 10]",100 to 1000 nM
6,"C[C@]1(c2ccn(C(F)F)n2)C[C@@H](C(=O)Nc2cnc(-c3ncccn3)c(C(F)(F)F)c2)c2cnc3cc(F)nn3c21 (single isomer, unassigned) [Example 139]",100 to 1000 nM
7,"C[C@@]1(c2cnn(C(F)F)c2)C[C@H](C(=O)Nc2cnc(-c3ncccn3)c(C(F)(F)F)c2)c2cnc3cc(F)nn3c21 (single isomer, unassigned) [Example 150]",100 to 1000 nM
8,"Cn1cc([C@@]2(C)C[C@H](C(=O)Nc3ccnc(C(F)(F)F)c3)c3cnc4cc(Cl)nn4c32)cn1 (single isomer, unassigned) [Example 44]",10 to 100 nM
9,"Cn1cc([C@@]2(C)C[C@@H](C(=O)Nc3cnc(OC(F)F)c(C#N)c3)c3cnc4cc(F)nn4c32)cn1 (single isomer, unassigned) [Example 43]",100 to 1000 nM
10,"C[C@@]1(c2cn(C(F)F)nn2)C[C@@H](C(=O)Nc2cnc(-n3nccn3)c(Cl)c2)c2cnc3cc(F)nn3c21 (single isomer, unassigned) [Example 176]",≥ 1000 nM
11,"Cn1cc([C@]2(C)C[C@@H](C(=O)Nc3cnc(OC(F)F)c(C#N)c3)c3cnc4cc(F)nn4c32)cn1 (single isomer, unassigned) [Example 41]",≥ 1000 nM
12,"Cn1ccc([C@]2(C)C[C@@H](C(=O)Nc3cnc(-n4nccn4)c(C(F)(F)F)c3)c3cnc4cc(F)nn4c32)n1 (single isomer, unassigned) [Example 145]",≥ 1000 nM
13,"C[C@]1(c2cnn(C(F)F)c2)C[C@H](C(=O)Nc2cnc(-c3ncc(F)cn3)c(Cl)c2)c2cnc3cc(F)nn3c21 [Example 134, (6S,8R)—N-(5-chloro-6-(5-fluoropyrimidin-2-yl)pyridin-3-yl)-8-(1-(difluoromethyl)-1H-pyrazol-4-yl)-2-fluoro-8-methyl-7,8-dihydro-6H-cyclopenta[e]pyrazolo[1,5-a]pyrimidine-6-carboxamide]",10 to 100 nM
14,"Cc1cc(NC(=O)[C@@H]2C[C@](C)(c3cnn(C)c3)c3c2cnc2cc(F)nn32)cnc1-n1nccn1 (single isomer, unassigned) [Example 59]",≥ 1000 nM
15,"CC1(c2ccn(C(F)F)n2)CC(C(=O)Nc2cnc(-c3cccnn3)c(C(F)(F)F)c2)c2cnc3cc(F)nn3c21 (single isomer, unassigned) [Example 163]",≥ 1000 nM
16,"CC1(c2ccn(C(F)F)n2)CC(C(=O)Nc2cnc(-c3ncc(F)cn3)c(Cl)c2)c2cnc3cc(F)nn3c21 (single isomer, unassigned) [Example 114]",10 to 100 nM
17,"CC(C)n1cc([C@@]2(C)C[C@@H](C(=O)Nc3cnc(-n4nccn4)c(Cl)c3)c3cnc4cc(F)nn4c32)cn1 (single isomer, unassigned) [Example 51]",100 to 1000 nM
18,"C[C@@]1(c2ccn(C(F)F)n2)C[C@@H](C(=O)Nc2cnc(-c3ncccn3)c(C(F)(F)F)c2)c2cnc3cc(F)nn3c21 (single isomer, unassigned) [Example 137]",≥ 1000 nM
19,"C[C@]1(c2ccn(C(F)F)n2)C[C@@H](C(=O)Nc2ccc(-c3ncccn3)c(Cl)c2)c2cnc3cc(F)nn3c21 (single isomer, unassigned) [Example 192]",100 to 1000 nM

row,SMILES,IC50
1,"C[C@]1(c2ccn(C(F)F)n2)C[C@@H](C(=O)Nc2cnc(-c3ncccn3)c(C(F)(F)F)c2)c2cnc3cc(Cl)nn3c21 (single isomer, unassigned) [Example 174]",100 to 1000 nM
2,"C[C@@]1(c2cnn(CC3CC3)c2)C[C@@H](C(=O)Nc2cnc(-n3nccn3)c(Cl)c2)c2cnc3cc(F)nn3c21 (single isomer, unassigned) [Example 99]",≥ 1000 nM
3,"Cn1cc([C@]2(C)C[C@@H](C(=O)Nc3cnc(-n4nccn4)c(Cl)c3)c3cnc4cc(Cl)nn4c32)cn1 (single isomer, unassigned) [Example 9]",≥ 1000 nM
4,"C[C@@]1(c2ccn(C(F)F)n2)C[C@@H](C(=O)Nc2cnc(OC(F)F)c(C#N)c2)c2cnc3cc(F)nn3c21 (single isomer, unassigned) [Example 111]",≥ 1000 nM
5,"C[C@@]1(c2ccn(C(F)F)n2)C[C@@H](C(=O)Nc2ccc(-c3ncccn3)c(C(F)(F)F)c2)c2cnc3cc(F)nn3c21 (single isomer, unassigned) [Example 186]",≥ 1000 nM
6,"C[C@@]1(c2ccn(C(F)F)n2)C[C@@H](C(=O)Nc2cnc(-c3ncccn3)c(C(F)(F)F)c2)c2cnc3cc(Cl)nn3c21 (single isomer, unassigned) [Example 172]",≥ 1000 nM
7,"Cn1cc([C@]2(C)C[C@H](C(=O)Nc3cnc(-n4nccn4)c(C(F)(F)F)c3)c3cnc4cc(F)nn4c32)cn1 (single isomer, unassigned) [Example 7]",100 to 1000 nM
8,"C[C@@]1(c2ccn(C3CC3)n2)C[C@H](C(=O)Nc2cnc(-n3nccn3)c(Cl)c2)c2cnc3cc(F)nn3c21 (single isomer, unassigned) [Example 154]",100 to 1000 nM
9,"CC1(c2cnn(C(F)F)c2)CC(C(=O)Nc2cnc(N=S3(=O)CCC3)c(Cl)c2)c2cnc3cc(F)nn3c21 (single isomer, unassigned) [Example 97]",≥ 1000 nM
10,"Cc1cc(NC(=O)C2CC(C)(c3ccn(C(F)F)n3)c3c2cnc2cc(F)nn32)cnc1-c1ncccn1 (single isomer, unassigned) [Example 183]",10 to 100 nM
11,"C[C@]1(c2cnn(C(F)F)c2)C[C@@H](C(=O)Nc2cnc(-c3ncccn3)c(C(F)(F)F)c2)c2cnc3cc(F)nn3c21 (single isomer, unassigned) [Example 151]",100 to 1000 nM
12,"C[C@]1(c2ccn(C(F)F)n2)C[C@@H](C(=O)Nc2cnc(-n3nccn3)c(Cl)c2)c2cnc3cc(F)nn3c21 (single isomer, unassigned) [Example 91]",100 to 1000 nM
13,"CCn1cc([C@]2(C)C[C@H](C(=O)Nc3cnc(-n4nccn4)c(Cl)c3)c3cnc4cc(F)nn4c32)cn1 (single isomer, unassigned) [Example 22]",10 to 100 nM
14,"C[C@@]1(c2ccn(C(F)F)n2)C[C@@H](C(=O)Nc2cnc(-n3nccn3)c(Cl)c2)c2cnc3cc(F)nn3c21 (single isomer, unassigned) [Example 89]",≥ 1000 nM
15,"Cn1cc([C@]2(C)C[C@@H](C(=O)Nc3cnc(-n4nccn4)c(C(F)(F)F)c3)c3cnc4cc(F)nn4c32)cn1 (single isomer, unassigned) [Example 4]",≥ 1000 nM
16,"C[C@@]1(c2cnn(C3CC3)c2)C[C@@H](C(=O)Nc2cnc(-n3nccn3)c(Cl)c2)c2cnc3cc(F)nn3c21 (single isomer, unassigned) [Example 29]",≥ 1000 nM
17,"C[C@]1(c2ccn(C(F)F)n2)C[C@H](C(=O)Nc2ccc(-c3ncccn3)c(C(F)(F)F)c2)c2cnc3cc(F)nn3c21 (single isomer, unassigned) [Example 185]",< 10 nM
18,"C[C@@]1(c2ccn(C(F)F)n2)C[C@H](C(=O)Nc2cnc(-n3nccn3)c(Cl)c2)c2cnc3cc(F)nn3c21 (single isomer, unassigned) [Example 90]",10 to 100 nM
